“Also recorded” adds a separate entry of the source. Each block holds one molecule with its values, some of them ahead of it. *1 amine or outer side, *2 acyl side, *3 side chain or, on linkers, in order; H or OH if unused. Where a SMILES comes first, the peptide text is derived from it. Bridges are numbered along the chain shown (N, C = ends). CH2CH2 = C(C[*:2])[*:1]
What was measured:
GST-Shh [1] = target: T1, GST-Shh (Homo sapiens, UniProt Q15465); assay: KD (nM)
T1 construct: poly-histidine (N); made in house; host or cells: E. coli BL21(DE3), vector pET42b
Text: Table printed on a drawing sheet, FIG. 9
Head of the field: KD (nM)
The patent's description of the figure: FIG. 9. Shh binding affinity of X5-X8-linked cyclic peptides.
First copying reader's note: The error (±) is printed in the same cell as the KD value.
Where the first naming reader finds the target: description_of_the_figure: direct binding of the selected FLAG tag-fused peptides to plate-immobilized GST-Shh
Target sequence in this assay (Q15465 24-197 limits assumed): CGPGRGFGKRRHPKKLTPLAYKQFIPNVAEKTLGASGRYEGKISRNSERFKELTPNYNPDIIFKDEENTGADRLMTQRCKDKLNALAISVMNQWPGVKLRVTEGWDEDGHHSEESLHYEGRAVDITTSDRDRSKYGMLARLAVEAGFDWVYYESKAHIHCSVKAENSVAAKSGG

[2] = tested on: Shh-mediated Hedgehog pathway signaling in NIH3T3 cells; assay: Gli-reporter dual luciferase assay in Shh-N-stimulated NIH-3T3 cells; assay type: cell-based, mouse
Text: The ability of the compounds provided herein to inhibit ligand-induced activation of the Hedgehog pathway in a cell can be assessed by means of a cell based assay. In an exemplary procedure, a suitable reporter plasmid is introduced in a Hedgehog responsive mammalian cell. Typically, the reporter plasmid contains a reporter gene encoding (e.g., a gene encoding for firefly luciferase) under a Gli-controlled promoter, thereby providing a reporter gene that is responsive to the activity of the Gli transcription factors. […] The reporter cells are incubated with the Hedgehog protein in the presence and in the absence of the cyclic peptide. The extent of Hedgehog pathway suppression can be determined based on relative activity of the luciferase reporter enzyme, which in turn can be determined by measuring the luminescence signal after addition of a luminogenic substrate of the luciferase enzyme.
To this end, we utilized a cell-based luciferase reporter assay, (Chen, Taipale et al. 2002) in which mouse embryo fibroblasts (NIH3T3) are transfected with vectors encoding for a Firefly luciferase (FF) gene under a Gli-controlled promoter and a Renilla luciferase (Ren) gene under a constitutive promoter. Hedgehog pathway suppression is measured based on the decrease in Firefly/Renilla luminescence ratio in the presence of the inhibitor. […] (Chen, Taipale et al. 2002)
Gli-reporter Assay. NIH-3T3 cells were passaged twice and then plated in 24-well culture dishes at 5×10^5 cells/well in DMEM containing 10% FBS and 1% penicillin/streptomycin. After 24 hours, the cells were transfected (TransIT-2020) with a mixture of a firefly luciferase reporter construct under the control of a Gli1 inducible promoter and a Renilla luciferase reporter construct under a constitutive promoter (40:1) (Cignal GLI Reporter Luciferase Kit, Qiagen). Cells were allowed to reach confluency, at which point the media was changed to Opti-MEM containing 1% FBS and added with 4 nM Shh-N(R&D Systems, Minneapolis, Minn.) in sterile PBS buffer. Synthetic HL2-lin and HL2-m5 were added at the same time at varying concentration (0.01-30 uM), and control cells were prepared by adding vehicle only (1% DMSO). Purmorphamine-treated cells were prepared by adding 5 μM purmorphamine to wells containing 10 μM HL2-m5. After growth for 24 hours at 37° C. in a humidified chamber, the cells were harvested and analyzed for Firefly and Renilla luciferase activity using a Tecan Spark-20 plate reader and a DLR kit (Promega) according to the manufacturer's instructions. Luminescence values were normalized to those of the Shh pathway activated control cells. Mean values and standard deviations were calculated from experiments performed at least in duplicate.

GST-Shh [3] = target: T1, GST-Shh; assay: Hh protein binding immunoassay: FLAG-tagged peptide on plate-immobilized GST-Shh, HRP-conjugated anti-FLAG antibody
Text: As for any peptide/protein interaction, various analytical and biophysical methods can be applied to test and assess the ability of the compounds provided herein to bind to Hedgehog proteins. These methods include, but are not limited to immunoassays (e.g., ELISA), radio(immune)assays, fluorescence-based assays, colorimetric assays, and/or techniques such as surface plasmon resonance (SPR), FRET, fluorescence polarization, isothermal calorimetry, NMR, and the like. A method that can be used is a solid phase immunoassay, in which the Hedgehog protein is immobilized on a plate or test tube and then incubated with the peptide at a fixed or variable concentration. In this assay, the peptide is functionalized with a label in the form of an antibody epitope (e.g., ‘FLAG tag’ peptide sequence) or an affinity tag molecule (e.g., biotin). After washing the unbound peptide, the Hedgehog-bound peptide is detected and quantified by means of a colorimetric assay using an enzyme-conjugated antibody (e.g., horseradish peroxidase-conjugated anti-FLAG antibody) or enzyme-conjugated capture protein (e.g., horseradish peroxidase-conjugated streptavidin). […]
To measure the binding affinity of the peptides for Shh, an in vitro assay was established in which recombinant GST-fused Shh is immobilized on microtiter plates and then exposed to the FLAG-tagged peptide at varying concentrations. The Shh-bound peptide is then quantified colorimetrically (λ450) using a horseradish peroxidase (HRP)-conjugated anti-FLAG antibody. […]
Hh protein binding assay. Shh binding activity/affinity of the linear and cyclic peptides was measured using the immunoassay outlined in FIG. 4. […] After washing, 100 μL of 2.2 mM o-phenylenediamine dihydrochloride, 4.2 mM urea hydrogen peroxide, 100 mM dibasic sodium phosphate and 50 mM sodium citrate, pH 5.0 was added to each well, followed by measurement of the absorbance at 450 nm using a Tecan Infinite 1000 plate reader. […]
Target sequence in this assay (Q15465 24-462): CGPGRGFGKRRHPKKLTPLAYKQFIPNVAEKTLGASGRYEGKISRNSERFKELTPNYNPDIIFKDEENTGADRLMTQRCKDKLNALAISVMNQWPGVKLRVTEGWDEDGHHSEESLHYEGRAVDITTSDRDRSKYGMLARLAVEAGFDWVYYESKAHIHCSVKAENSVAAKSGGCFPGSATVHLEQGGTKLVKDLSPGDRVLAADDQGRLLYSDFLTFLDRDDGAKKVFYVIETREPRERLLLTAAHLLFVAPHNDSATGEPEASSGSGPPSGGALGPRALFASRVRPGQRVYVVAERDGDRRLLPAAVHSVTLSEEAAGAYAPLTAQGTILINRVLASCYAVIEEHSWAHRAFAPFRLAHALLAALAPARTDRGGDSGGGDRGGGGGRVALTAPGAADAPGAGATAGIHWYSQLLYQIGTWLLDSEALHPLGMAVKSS

[4] = tested on: GST-Shh, GST-Ihh, and GST-Dhh; assay: Hedgehog analog selectivity: relative binding at fixed peptide concentration; parameters: species or system human; details: peptide at fixed concentration of 0.5-1 μM, normalized to highest response
Procedure: FIG. 14. Hh analog selectivity for linear HHIP L2-derived peptide (HL2-pep) and representative cyclic peptide inhibitors. The data relative to the peptides were derived from direct binding experiments with immobilized Hedgehog proteins (i.e., GST-Shh, GST-Ihh, and GST-Dhh), biotinylated peptides (i.e., Biot-HL2-pep, Biot-HL2-m1, Biot-HL2-m2, Biot-HL2-m3, Biot-HL2-m4, Biot-HL2-m4), and HRP-conjugated streptavidin. The data relative to robotnikinin were derived from competition experiments ([…]+400 nM HL2-m5). For each compound, the response values were normalized to the highest binding response measured across the three Hedgehog analogs.
Hedgehog analog selectivity. KD values for FLAG-HL2-m5 binding to Ihh and Dhh were determined using the colorimetric immunoassay described earlier but using GST-Ihh and GST-Dhh-coated plates, respectively. The peptide relative binding affinity for the three isoforms of Hedgehog was determined using the same assay and peptide solutions at a fixed concentration of 0.5-1 μM. In this case, binding responses were subtracted against the blank (no peptide sample) and normalized to the highest value measured across the three Hh isoforms. Mean values and standard deviations were calculated from experiments performed at least in triplicate.

Kd (GST-Shh [1]): 0.56 ± 0.005 µM
Molecule: CSCC[C@H](N)C(=O)N[C@@H](CC(=O)O)C(=O)N[C@@H](Cc1ccc(O)cc1)C(=O)N[C@@H](CCCCN)C(=O)N[C@@H](CC(=O)O)C(=O)N[C@@H](CC(=O)O)C(=O)N[C@@H](CC(=O)O)C(=O)N[C@@H](CC(=O)O)C(=O)N[C@@H](CCCCN)C(=O)NCC(=O)N[C@@H](CO)C(=O)NCC(=O)N[C@@H](CO)C(=O)N[C@H](C(=O)N[C@H](C(=O)N[C@@H](CO)C(=O)N[C@@H](CC(=O)O)C(=O)NCC(=O)N[C@@H](CCC(=O)O)C(=O)N[C@@H](CCC(=O)O)C(=O)N[C@H]1Cc2ccc(cc2)OCCSC[C@@H](C(=O)N[C@@H](CC(C)C)C(=O)N[C@@H](CC(=O)O)C(=O)O)NC(=O)CNC(=O)[C@H](CC(=O)O)NC1=O)C(C)C)[C@@H](C)O [FLAG-HL2-2m1.1] (H-MDYKDDDDKGSGSTVSDGEEYDGCLD-OH; linker 21-24 via CH2CH2; N-terminus assumed)

Molecule: CC1=C2C[C@H]3[C@@H](CC=C4C[C@@H](O)CC[C@@]43C)[C@@H]2CC[C@]12O[C@@H]1C[C@H](C)CN[C@H]1[C@H]2C [cyclopamine]
inhibition of Shh-induced luminescence ([2]; concentration of 10 μM): full inhibition

Molecule: CSCC[C@@H]1NC(=O)[C@H](CCC(=O)O)NC(=O)[C@H](CCC(=O)O)NC(=O)[C@@H](NC(=O)[C@H](CC(=O)O)NC(=O)[C@H](CC(=O)O)NC(=O)[C@H](CC(C)C)NC(=O)[C@@H](NC(=O)[C@H](CO)NC(=O)CNC(=O)[C@H](CO)NC(=O)CNC(=O)[C@H](CCCCN)NC(=O)[C@H](CC(=O)O)NC(=O)[C@H](CC(=O)O)NC(=O)[C@H](CC(=O)O)NC(=O)[C@H](CC(=O)O)NC(=O)[C@H](CCCCN)NC(=O)[C@H](Cc2ccc(O)cc2)NC(=O)[C@H](CC(=O)O)NC(=O)[C@@H](N)CCSC)[C@@H](C)O)Cc2ccc(cc2)OCCSC[C@@H](C(=O)N[C@@H](CO)C(=O)N[C@@H](CC(=O)O)C(=O)O)NC(=O)CNC(=O)[C@H](CC(=O)O)NC1=O [FLAG-HL2-m1] (H-MDYKDDDDKGSGSTLDDYEEMDGCSD-OH; linker 18-24 via CH2CH2; N-terminus assumed)
increase in Shh binding affinity compared to FLAG-HL2-m1 (GST-Shh [3]; ratio of KD values): 11 fold

Molecule: c1ccc2c(Oc3nc(Nc4ccc(N5CCOCC5)cc4)c4ncn(C5CCCCC5)c4n3)cccc2c1 [purmorphamine]
effect of Smo agonist on pathway signaling in HL-m5-treated cells ([2]; 5 μM purmorphamine added to 10 μM HL2-m5): restored activation of the signaling pathway

Kd (GST-Shh [1]): 0.85 ± 0.02 µM
Molecule: CSCC[C@H](N)C(=O)N[C@@H](CC(=O)O)C(=O)N[C@@H](Cc1ccc(O)cc1)C(=O)N[C@@H](CCCCN)C(=O)N[C@@H](CC(=O)O)C(=O)N[C@@H](CC(=O)O)C(=O)N[C@@H](CC(=O)O)C(=O)N[C@@H](CC(=O)O)C(=O)N[C@@H](CCCCN)C(=O)NCC(=O)N[C@@H](CO)C(=O)NCC(=O)N[C@@H](CO)C(=O)N[C@H](C(=O)N[C@@H](CCCNC(=N)N)C(=O)NCC(=O)N[C@@H](CC(=O)O)C(=O)NCC(=O)N[C@@H](CCC(=O)O)C(=O)N[C@@H](CCC(=O)O)C(=O)N[C@H]1Cc2ccc(cc2)OCCSC[C@@H](C(=O)N[C@H](C(=O)N[C@@H](CC(=O)O)C(=O)O)C(C)C)NC(=O)CNC(=O)[C@H](CC(=O)O)NC1=O)[C@@H](C)O [FLAG-HL2-2m1.2] (H-MDYKDDDDKGSGSTRGDGEEYDGCVD-OH; linker 21-24 via CH2CH2; N-terminus assumed)

Molecule: CSCC[C@@H]1NC(=O)[C@H](C)NC(=O)[C@H](CCC(=O)O)NC(=O)[C@@H](NC(=O)[C@H](Cc2c[nH]c3ccccc23)NC(=O)[C@H](CO)NC(=O)[C@H](CC(C)C)NC(=O)[C@@H](NC(=O)[C@H](CO)NC(=O)CNC(=O)[C@H](CO)NC(=O)CNC(=O)[C@H](CCCCN)NC(=O)[C@H](CC(=O)O)NC(=O)[C@H](CC(=O)O)NC(=O)[C@H](CC(=O)O)NC(=O)[C@H](CC(=O)O)NC(=O)[C@H](CCCCN)NC(=O)[C@H](Cc2ccc(O)cc2)NC(=O)[C@H](CC(=O)O)NC(=O)[C@@H](N)CCSC)[C@@H](C)O)Cc2ccc(cc2)OCCSC[C@@H](C(=O)N[C@H](C(=O)N[C@@H](CC(=O)O)C(=O)O)[C@@H](C)O)NC(=O)[C@H](CCSC)NC(=O)[C@H](CC(=O)O)NC1=O [FLAG-HL2-m5] (H-MDYKDDDDKGSGSTLSWYEAMDMCTD-OH; linker 18-24 via CH2CH2)
Kd (GST-Shh [3]): 0.17 µM
higher binding affinity for Shh compared to the linear L2-derived peptide (FLAG-HL2-pep) (GST-Shh [3]; ratio of KD values): ~120 fold

Molecule: HL2-pep: linear peptide derived from the HHIP L2 loop (TLDDMEEMDGLSD)
Hedgehog analog selectivity profile [4]: Dhh>Shh≈Ihh
inhibitory activity on Hedgehog pathway signaling (in words) ([2]; concentrations up to 30 μM, Shh-N-stimulated cells): no inhibitory activity; also recorded: unable to suppress signaling

Source: patent US20210115087A1, “CYCLIC PEPTIDE INHIBITORS OF HEDGEHOG PROTEINS” (University of Rochester, priority 2016, published 2021)
